The values that follow come from US20260022142A1, “MACROCYCLIC IMMUNOMODULATORS” (Bristol-Myers Squibb Company, priority 2022, published 2026).

SMILES strings stand for the structures. Bridge positions count the residues as written; N and C are the ends. Square brackets hold non-standard residues; d marks the D form. Peptide text beside a SMILES is read from it. * marks the point of attachment. ξ: configuration not given here. Phe(4-COOH) = N[C@@H](Cc1ccc(C(=O)O)cc1)C(=O)O; Bip = N[C@@H](Cc1ccc(-c2ccccc2)cc1)C(=O)O; Phe(3-Me) = Cc1cccc(C[C@H](N)C(=O)O)c1; Cha = N[C@@H](CC1CCCCC1)C(=O)O; Cit = NC(=O)NCCC[C@H](N)C(=O)O; Thr(3ξ) = CC(O)[C@H](N)C(=O)O; hSer = N[C@@H](CCO)C(=O)O; Carboxymethyl = O=C(O)C*; Orn = NCCC[C@H](N)C(=O)O; Aun = NCCCCCCCCCCC(=O)O; Dab = NCC[C@H](N)C(=O)O; AEEA = NCCOCCOCC(=O)O

T1 sequence (Q15116 25-288): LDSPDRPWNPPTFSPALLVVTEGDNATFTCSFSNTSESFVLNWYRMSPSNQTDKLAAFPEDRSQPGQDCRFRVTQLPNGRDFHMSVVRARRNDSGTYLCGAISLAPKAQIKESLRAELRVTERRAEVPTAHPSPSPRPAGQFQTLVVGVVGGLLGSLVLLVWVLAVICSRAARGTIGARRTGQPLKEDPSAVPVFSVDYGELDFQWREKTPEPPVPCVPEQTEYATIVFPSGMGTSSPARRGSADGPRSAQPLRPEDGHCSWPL

The assay addresses T1, PD-1/PD-L1 interaction (PE-labeled human PD-L1-Ig binding to Jurkat cell line over-expressing human PD-1) (Homo sapiens, UniProt Q15116).
T1 construct: expressed in transfected cells; host or cells: Jurkat
The experiment in a line: Jurkat-PD-1 Cell Binding High-Content Screening Assay (CBA). The class given is cell-based. As to conditions: Jurkat cell line over-expressing human PD-1; PE-labeled PD-L1-Ig 20 nM final; read-out: Jurkat hPD1-PDL1 IC50. The method, boiled down:
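Human PD-L1-Ig carrying a covalent PE label on its Ig tag serves as the probe, applied at 20 nM final to compound-treated (2 h, 37° C) Jurkat-hPD-1 cells in medium with 10% fetal calf serum. After one hour, fixation and nuclear staining precede high-content image analysis.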
Broadly, the IC50 is the concentration that gives 50% inhibition. `Cc1cccc(C[C@@H]2NC(=O)[C@H](CC(=O)O)NC(=O)[C@H](Cc3ccc(OCC(=O)O)cc3)NC(=O)[C@H](C(C)C)NC(=O)CSC[C@@H](C(=O)N[C@@H](CCCCN)C(=O)NCCCCCCCCCCC(=O)O)NC(=O)[C@H](C(C)O)NC(=O)[C@H](C(C)C)NC(=O)[C@H](CC3CCCCC3)NC(=O)[C@H](CCN)NC(=O)[C@@H](CC(C)C)NC(=O)[C@H](CCCN)NC(=O)[C@H](C(C)C)NC(=O)[C@H](Cc3ccc(-c4ccccc4)cc3)NC(=O)[C@H](C(C)C)NC2=O)c1` (stereo partly drawn) [Compound 3471] ({CH2CO}-VY(Carboxymethyl)D[Phe(3-Me)]V[Bip]V[Orn][dL][Dab][Cha]V[Thr(3ξ)]CK[Aun]-OH; thioether N-14): the IC50 was 21.2 nM.

`Cc1cccc(C[C@@H]2NC(=O)[C@H](CC(=O)O)NC(=O)[C@H](Cc3ccc(OCC(=O)O)cc3)NC(=O)[C@H](C(C)O)NC(=O)CSC[C@@H](C(=O)N[C@@H](CCCCN)C(=O)NCCCCCCCCCCC(=O)O)NC(=O)[C@H](CCCCN)NC(=O)[C@H](C(C)C)NC(=O)[C@H](CC3CCCCC3)NC(=O)[C@H](CCN)NC(=O)[C@@H](CC(C)C)NC(=O)[C@H](CCCN)NC(=O)[C@H](C(C)C)NC(=O)[C@H](Cc3ccc(-c4ccccc4)cc3)NC(=O)[C@H](C(C)C)NC2=O)c1` (stereo partly drawn) [Compound 3472] ({CH2CO}-[Thr(3ξ)]Y(Carboxymethyl)D[Phe(3-Me)]V[Bip]V[Orn][dL][Dab][Cha]VKCK[Aun]-OH; thioether N-14): the IC50 turned out to be 13.3 nM.

Regarding `Cc1cccc(C[C@@H]2NC(=O)[C@H](CC(=O)O)NC(=O)[C@H](Cc3ccc(OCC(=O)O)cc3)NC(=O)[C@H](CCCNC(=N)N)NC(=O)CSC[C@@H](C(=O)N[C@@H](CCCCN)C(=O)NCCCCCCCCCCC(=O)O)NC(=O)[C@H](C(C)O)NC(=O)[C@H](C(C)C)NC(=O)[C@H](CC3CCCCC3)NC(=O)[C@H](CCN)NC(=O)[C@@H](CC(C)C)NC(=O)[C@H](CCCN)NC(=O)[C@H](Cc3ccc(O)cc3)NC(=O)[C@H](Cc3ccc(-c4ccccc4)cc3)NC(=O)[C@H](C(C)C)NC2=O)c1` (stereo partly drawn) [Compound 3473] ({CH2CO}-RY(Carboxymethyl)D[Phe(3-Me)]V[Bip]Y[Orn][dL][Dab][Cha]V[Thr(3ξ)]CK[Aun]-OH; thioether N-14), the IC50 is 15.1 nM.

`Cc1cccc(C[C@@H]2NC(=O)[C@H](CC(=O)O)NC(=O)[C@H](Cc3ccc(OCC(=O)O)cc3)NC(=O)[C@H](CCCNC(=N)N)NC(=O)CSC[C@@H](C(=O)N[C@@H](CCCCN)C(=O)NCCCCCCCCCCC(=O)O)NC(=O)[C@H](CCCN)NC(=O)[C@H](C(C)C)NC(=O)[C@H](CC3CCCCC3)NC(=O)[C@H](CCN)NC(=O)[C@@H](CC(C)C)NC(=O)[C@H](CCCN)NC(=O)[C@H](CCCNC(N)=O)NC(=O)[C@H](Cc3ccc(-c4ccccc4)cc3)NC(=O)[C@H](C(C)C)NC2=O)c1` [Compound 3474] ({CH2CO}-RY(Carboxymethyl)D[Phe(3-Me)]V[Bip][Cit][Orn][dL][Dab][Cha]V[Orn]CK[Aun]-OH; thioether N-14): the IC50 was found to be 11.8 nM.

As to `Cc1cccc(C[C@@H]2NC(=O)[C@H](CC(=O)O)NC(=O)[C@H](Cc3ccc(OCC(=O)O)cc3)NC(=O)[C@H](CCCNC(=N)N)NC(=O)CSC[C@@H](C(=O)N[C@@H](CCCCN)C(=O)NCCCCCCCCCCC(=O)O)NC(=O)[C@H](C(C)O)NC(=O)[C@H](C(C)C)NC(=O)[C@H](CC3CCCCC3)NC(=O)[C@H](CCN)NC(=O)[C@@H](CC(C)C)NC(=O)[C@H](CCCN)NC(=O)[C@H](C(C)C)NC(=O)[C@H](Cc3ccc(-c4ccccc4)cc3)NC(=O)[C@H](C(C)C)NC2=O)c1` (stereo partly drawn) [Compound 3475] ({CH2CO}-RY(Carboxymethyl)D[Phe(3-Me)]V[Bip]V[Orn][dL][Dab][Cha]V[Thr(3ξ)]CK[Aun]-OH; thioether N-14), the IC50 worked out at 25.7 nM.

Take `Cc1cccc(C[C@@H]2NC(=O)[C@H](CC(=O)O)NC(=O)[C@H](Cc3ccc(OCC(=O)O)cc3)NC(=O)[C@H](CCCNC(=N)N)NC(=O)CSC[C@@H](C(=O)NCCOCCOCC(=O)NCCCCCCCCCCC(=O)O)NC(=O)[C@H](C(C)O)NC(=O)[C@H](C(C)C)NC(=O)[C@H](CC3CCCCC3)NC(=O)[C@H](CCN)NC(=O)[C@@H](CC(C)C)NC(=O)[C@H](CCCN)NC(=O)[C@H](Cc3ccc(OCC(=O)O)cc3)NC(=O)[C@H](Cc3ccc(-c4ccccc4)cc3)NC(=O)[C@H](Cc3ccc(OCC(=O)O)cc3)NC2=O)c1` (stereo partly drawn) [Compound 3477] ({CH2CO}-RY(Carboxymethyl)D[Phe(3-Me)]Y(Carboxymethyl)[Bip]Y(Carboxymethyl)[Orn][dL][Dab][Cha]V[Thr(3ξ)]C[AEEA][Aun]-OH; thioether N-14): the IC50 is 38.4 nM.

Turning to `Cc1cccc(C[C@@H]2NC(=O)[C@H](CC(=O)O)NC(=O)[C@H](Cc3ccc(OCC(=O)O)cc3)NC(=O)[C@H](C(C)O)NC(=O)CSC[C@@H](C(=O)NCCOCCOCC(=O)NCCCCCCCCCCC(=O)O)NC(=O)[C@H](C(C)O)NC(=O)[C@H](C(C)C)NC(=O)[C@H](CC3CCCCC3)NC(=O)[C@H](CCN)NC(=O)[C@@H](CC(C)C)NC(=O)[C@H](CCCN)NC(=O)[C@H](Cc3ccc(OCC(=O)O)cc3)NC(=O)[C@H](Cc3ccc(-c4ccccc4)cc3)NC(=O)[C@H](Cc3ccc(OCC(=O)O)cc3)NC2=O)c1` (stereo partly drawn) [Compound 3478] ({CH2CO}-[Thr(3ξ)]Y(Carboxymethyl)D[Phe(3-Me)]Y(Carboxymethyl)[Bip]Y(Carboxymethyl)[Orn][dL][Dab][Cha]V[Thr(3ξ)]C[AEEA][Aun]-OH; thioether N-14), the concentration for half-maximal inhibition (IC50) came to 21.1 nM.

Turning to `Cc1cccc(C[C@@H]2NC(=O)[C@H](CC(=O)O)NC(=O)[C@H](Cc3ccc(OCC(=O)O)cc3)NC(=O)[C@H](CCCNC(=N)N)NC(=O)CSC[C@@H](C(=O)NCCOCCOCC(=O)NCCCCCCCCCCC(=O)O)NC(=O)[C@H](C(C)O)NC(=O)[C@H](C(C)C)NC(=O)[C@H](CC3CCCCC3)NC(=O)[C@H](CCN)NC(=O)[C@@H](CC(C)C)NC(=O)[C@H](CCCN)NC(=O)[C@H](Cc3ccc(OCC(=O)O)cc3)NC(=O)[C@H](Cc3ccc(-c4ccccc4)cc3)NC(=O)[C@H](Cc3ccc(C(=O)O)cc3)NC2=O)c1` (stereo partly drawn) [Compound 3479] ({CH2CO}-RY(Carboxymethyl)D[Phe(3-Me)][Phe(4-COOH)][Bip]Y(Carboxymethyl)[Orn][dL][Dab][Cha]V[Thr(3ξ)]C[AEEA][Aun]-OH; thioether N-14), the IC50 was found to be 59.6 nM.

For `Cc1cccc(C[C@@H]2NC(=O)[C@H](CC(=O)O)NC(=O)[C@H](Cc3ccc(OCC(=O)O)cc3)NC(=O)[C@H](CCCNC(=N)N)NC(=O)CSC[C@@H](C(=O)NCCOCCOCC(=O)NCCCCCCCCCCC(=O)O)NC(=O)[C@H](C(C)O)NC(=O)[C@H](C(C)C)NC(=O)[C@H](CC3CCCCC3)NC(=O)[C@H](CCN)NC(=O)[C@@H](CC(C)C)NC(=O)[C@H](CCCNC(N)=O)NC(=O)[C@H](Cc3ccc(OCC(=O)O)cc3)NC(=O)[C@H](Cc3ccc(-c4ccccc4)cc3)NC(=O)[C@H](C(C)C)NC2=O)c1` (stereo partly drawn) [Compound 3480] ({CH2CO}-RY(Carboxymethyl)D[Phe(3-Me)]V[Bip]Y(Carboxymethyl)[Cit][dL][Dab][Cha]V[Thr(3ξ)]C[AEEA][Aun]-OH; thioether N-14), the IC50 amounted to 17.5 nM.

For `Cc1cccc(C[C@@H]2NC(=O)[C@H](CC(=O)O)NC(=O)[C@H](Cc3ccc(OCC(=O)O)cc3)NC(=O)[C@H](CCCNC(=N)N)NC(=O)CSC[C@@H](C(=O)NCCOCCOCC(=O)NCCCCCCCCCCC(=O)O)NC(=O)[C@H](C(C)O)NC(=O)[C@H](C(C)C)NC(=O)[C@H](CC3CCCCC3)NC(=O)[C@H](CCN)NC(=O)[C@@H](CC(C)C)NC(=O)[C@H](CCCNC(N)=O)NC(=O)[C@H](Cc3ccc(OCC(=O)O)cc3)NC(=O)[C@H](Cc3ccc(-c4ccccc4)cc3)NC(=O)[C@H](Cc3ccc(OCC(=O)O)cc3)NC2=O)c1` (stereo partly drawn) [Compound 3481] ({CH2CO}-RY(Carboxymethyl)D[Phe(3-Me)]Y(Carboxymethyl)[Bip]Y(Carboxymethyl)[Cit][dL][Dab][Cha]V[Thr(3ξ)]C[AEEA][Aun]-OH; thioether N-14), the IC50 worked out at 71.6 nM.

Turning to `Cc1cccc(C[C@@H]2NC(=O)[C@H](CC(=O)O)NC(=O)[C@H](Cc3ccc(OCC(=O)O)cc3)NC(=O)[C@H](C(C)O)NC(=O)CSC[C@@H](C(=O)N[C@@H](CCN)C(=O)NCCCCCCCCCCC(=O)O)NC(=O)[C@H](CCO)NC(=O)[C@H](C(C)C)NC(=O)[C@H](CC3CCCCC3)NC(=O)[C@H](CCN)NC(=O)[C@@H](CC(C)C)NC(=O)[C@H](CCCN)NC(=O)[C@H](Cc3ccc(OCC(=O)O)cc3)NC(=O)[C@H](Cc3ccc(-c4ccccc4)cc3)NC(=O)[C@H](Cc3ccc(OCC(=O)O)cc3)NC2=O)c1` (stereo partly drawn) [Compound 3482] ({CH2CO}-[Thr(3ξ)]Y(Carboxymethyl)D[Phe(3-Me)]Y(Carboxymethyl)[Bip]Y(Carboxymethyl)[Orn][dL][Dab][Cha]V[hSer]C[Dab][Aun]-OH; thioether N-14), the IC50 was 7.5 nM.

In the case of `Cc1cccc(C[C@@H]2NC(=O)[C@H](CC(=O)O)NC(=O)[C@H](Cc3ccc(OCC(=O)O)cc3)NC(=O)[C@H](C(C)O)NC(=O)CSC[C@@H](C(=O)N[C@@H](CCN)C(=O)NCCCCCCCCCCC(=O)O)NC(=O)[C@H](CCO)NC(=O)[C@H](C(C)C)NC(=O)[C@H](CC3CCCCC3)NC(=O)[C@H](CCN)NC(=O)[C@@H](CC(C)C)NC(=O)[C@H](CCCN)NC(=O)[C@H](Cc3ccc(OCC(=O)O)cc3)NC(=O)[C@H](Cc3ccc(-c4ccccc4)cc3)NC(=O)[C@H](Cc3ccc(C(=O)O)cc3)NC2=O)c1` (stereo partly drawn) [Compound 3483] ({CH2CO}-[Thr(3ξ)]Y(Carboxymethyl)D[Phe(3-Me)][Phe(4-COOH)][Bip]Y(Carboxymethyl)[Orn][dL][Dab][Cha]V[hSer]C[Dab][Aun]-OH; thioether N-14), the IC50 worked out at 9.5 nM.
